Tests used:
LTS progenitors [1] = assay: let-7 microRNA mimic transfection; assay type: cell-based, human
Method: HSKM, TS and LTS cells were seeded in gelatin-coated six-well plates at a density of 4×10^4 cells/well and maintained with culture medium. PEI (14.5 ng/μL), mature Mirvana hsa-let-7a-5p (#4464066; Assay ID: MC10050; Thermo Fisher) and/or hsa-let-7b-5p (#4464066; Assay ID: MC11050; Thermo Fisher) mimic (0.25 μM) or Cy5-conjugated scramble RNAi control, was mixed with serum-free DMEM to a total volume of 200 μL. This mixture was transfected onto each well.

diabetic nude mice = assay: Transplantation of iMusc-Insm cells into streptozotocin diabetic nude mice; assay type: in vivo, mouse; details: after streptozotocin treatment, before transplantation
Method: To determine whether differentiated iMusc-Insm cells were able to produce bioactive insulin and treat diabetes mellitus in vivo, 5×10^6 iMusc-Insm and iMusc-neo myoblast cells were transplanted by direct skeletal muscle injection into 6-8 week old male athymic nude mice (B6.Cg-Foxn1^nn/J; Jackson Labs) that have received daily intraperitoneal injections of 40 mg/kg streptozotocin (Tocris Bioscience), dissolved in 0.1M citrate buffer (pH 4.5), for 5 consecutive days, to model diabetes mellitus. Glycemia and insulinemia were measured in fed mice every 3-7 days, for 3 weeks after injection of the cells. Blood glucose was measured using a glucometer (Roche), while plasma insulin was measured by ELISA (Mercodia).

HSKM progenitors = assay: Cell counts after drug treatment, HSKM; assay type: cell-based, human
Method: (§1) HSKM, TS and LTS cells were seeded in gelatin-coated six-well plates at a density of 4×10^4 cells/well and maintained with culture medium. One day after seeding, culture medium was replaced with culture medium containing either paraquat (Sigma-Aldrich; 2 μM), hydrogen peroxide (ICM Pharma; 100 μM), DTT (Thermo Fisher; 250 μM), 2-deoxyglucose (Sigma-Aldrich; 2.5 mM), KC7F2 (Sigma-Aldrich; 10 μM) or DMSO/H2O controls. For ROS modulators, cells were allowed to grow for 72 hours post-treatment, while for 2-DG, cells were allowed to grow for eight days post-treatment.

[2] = test system: mitochondrial ROS in HSKM, TS and LTS cells; assay: Flow cytometry oxidation state assay with mito-Grx1-roGFP2; assay type: cell-based, human; details: all progenitor types (HSKM, TS, LTS); H2O2 100 μM, DTT 250 μM
Method: HSKM, TS and LTS cells were transduced with the roGFP2 retrovirus for 48 hours. Cells were allowed to expand to 15-cm tissue culture plates and then harvested for fluorescence-activated cell sorting for roGFP2+ cells using the FITC channel with a BD FACS Aria II cell sorter. HSKM, TS and LTS cells were seeded in gelatin-coated six-well plates at a density of 4×10^4 cells/well and maintained with culture medium. […] Cells were allowed to grow for 48 hours and then harvested for flow cytometry using a BD LSR Fortessa x-20 analyzer. HSKM, TS and LTS cells were used as non-fluorescent gating controls for each of their respective roGFP2+ counterparts. For each cell line, FSC, SSC, 405 nm/AmCyan and 488 nm/FITC channels were captured. FCS files were exported from FACS Diva and imported into FlowJo, where raw-value CSV files were exported. Raw values of 405 nm/488 nm ratio was calculated and then averaged for each cell line and condition.

LTS progenitors [3] = assay: Cell counts after drug treatment, LTS; assay type: cell-based, human
Method: as §1

TS progenitors = assay: Cell counts after drug treatment, TS; assay type: cell-based, human
Method: as §1

LTS progenitors [4] = assay: qRT-PCR after ROS-modulating drugs in LTS progenitors; assay type: cell-based, human
Method: as §1, with “RNA was extracted by TRIzol (Thermo Fisher) and reverse transcribed with Superscript III (Thermo Fisher) according to manufacturer's instructions. The resulting cDNA was diluted 5× before performing qPCR with KAPA SYBR FAST on ABI Prism 7900HT (Applied Biosystems) according to manufacturers' instructions. HSKM,” for “HSKM,”

hsa-let-7a-5p
effect on proliferation rate (cell counts) (LTS progenitors [1]): neither let-7a, nor let-7b, nor both, had any effect

CN(N=O)C(=O)N[C@H]1C(O)O[C@H](CO)[C@@H](O)[C@@H]1O (mixture of isomers) [streptozotocin]
fed glucose levels (diabetic nude mice): ~346 mg/dL | fed insulin levels (diabetic nude mice): ~63 μIU/ml

hsa-let-7b-5p
effect on proliferation rate (cell counts) (LTS progenitors [1]): neither let-7a, nor let-7b, nor both, had any effect

O[C@H](CS)[C@H](O)CS (racemic) [DTT, dithiothreitol]
progenitor proliferation (cell counts) (HSKM progenitors): no significant effects | effect on mtROS [2]: most reliably reduced mtROS | progenitor proliferation (cell counts) (LTS progenitors [3]): significant suppression of LTS progenitor proliferation in a dose-dependent fashion | progenitor proliferation (cell counts) (TS progenitors): no significant effects | HIF1A targets and glycolysis genes mRNA (LTS progenitors [4]): could suppress | OxPhos mRNA levels (LTS progenitors [4]): failed to perturb

O=CC[C@@H](O)[C@H](O)[C@H](O)CO [2-deoxyglucose]
progenitor proliferation (cell counts) (HSKM progenitors): mild but significant decreases | progenitor proliferation (cell counts) (LTS progenitors [3]): mild but significant decreases | progenitor proliferation (cell counts) (TS progenitors): mild but significant decreases

O=S(=O)(NCCSSCCNS(=O)(=O)c1cc(Cl)ccc1Cl)c1cc(Cl)ccc1Cl [KC7F2]
progenitor proliferation (cell counts) (HSKM progenitors): no significant effects | progenitor proliferation (cell counts) (LTS progenitors [3]): significantly suppressed LTS progenitor proliferation | progenitor proliferation (cell counts) (TS progenitors): no significant effects

OO [H2O2, hydrogen peroxide]
progenitor proliferation (cell counts) (HSKM progenitors): no significant effects | effect on mtROS [2]: most reliably increased mtROS | progenitor proliferation (cell counts) (LTS progenitors [3]): significant suppression of LTS progenitor proliferation in a dose-dependent fashion | progenitor proliferation (cell counts) (TS progenitors): no significant effects | HIF1A targets and glycolysis genes mRNA (LTS progenitors [4]): could suppress | OxPhos mRNA levels (LTS progenitors [4]): failed to perturb

— patent publication US20220257793A1, “COMPOSITIONS AND USE OF ENGINEERED MYOGENIC CELLS” (Institute of Zoology, Chinese Academy of Sciences, priority 2019, published 2022)
